Experimental data as given in publication PMC2706954, “Dissecting Structural and Functional Diversity of the Lantibiotic Mersacidin” (Chemistry & Biology, 2009).
≈ marks a conversion by molar mass, not a printed value.

Key:
S. aureus R33 MRSA = assay type: cell-based, Staphylococcus aureus; conditions: R33
Experimental: (§1) Antibacterial activity of fermentation samples or purified samples was determined by Mueller-Hinton Agar diffusion bioassays using M. luteus ATCC 4698 as the indicator strain. Susceptibility testing (minimum inhibitory concentration [MIC]) for all aerobic organisms, with the exception of S. pneumoniae, was performed following the recommendations of CLSI. Susceptibility testing of S. pneumoniae was performed by two-fold serial dilutions in brain-heart-infusion broth supplemented with 50 μg/ml Ca^2+. Vancomycin was used as a reference antibiotic, and plates were incubated aerobically, with shaking, for 18–20 hr at 37°C with the MIC defined as the lowest concentration of drug that prevented visible growth.

S. aureus SH1000 = assay type: cell-based, Staphylococcus aureus; conditions: SH1000
Experimental: as §1

M. luteus ATCC4698 = assay type: cell-based, Micrococcus luteus; conditions: ATCC4698
Experimental: as §1

E. faecalis ATCC29212 = assay type: cell-based; conditions: ATCC29212
Experimental: as §1

E. faecium 7131121 VRE = assay type: cell-based; conditions: 7131121 VRE
Experimental: as §1

E. faecium ATCC19579 = assay type: cell-based; conditions: ATCC19579
Experimental: as §1

S. epidermidis NCTC11047 = assay type: cell-based; conditions: NCTC11047
Experimental: as §1

S. pneumoniae BAA-255 = assay type: cell-based, Streptococcus pneumoniae; conditions: BAA-255
Experimental: as §1

SMILES | MIC S. aureus R33 MRSA (S. aureus R33 MRSA) [µg/mL] | MIC S. aureus SH1000 (S. aureus SH1000) [µg/mL] | MIC M. luteus ATCC4698 (M. luteus ATCC4698) [µg/mL] | MIC E. faecalis ATCC29212 (E. faecalis ATCC29212) [µg/mL] | MIC E. faecium 7131121 VRE (E. faecium 7131121 VRE) [µg/mL] | MIC E. faecium ATCC19579 (E. faecium ATCC19579) [µg/mL] | MIC S. epidermidis NCTC11047 (S. epidermidis NCTC11047) [µg/mL] | MIC S. pneumoniae BAA-255 (S. pneumoniae BAA-255)
C=C1NC(=O)C2NC(=O)[C@H](CC(C)C)NC(=O)C(NC(=O)[C@@H]3CSC(C)C(NC(=O)[C@H](Cc4c[nH]c5ccccc45)NC(=O)C4NC(=O)[C@@H](N)CSC4C)C(=O)N[C@@H](CC(C)C)C(=O)N4CCC[C@H]4C(=O)NCC(=O)NCC(=O)NCC(=O)NCC(=O)N[C@@H](C(C)C)C(=O)N3)C(C)SC[C@H](NC(=O)[C@H](CCC(=O)O)NC1=O)C(=O)N[C@@H]([C@@H](C)CC)C(=O)NC=CSC2C (some centres unmarked) [F3W] | 8 (≈ 4.29 µM) | 16 (≈ 8.58 µM) | 0.5 (≈ 0.268 µM) | 32 (≈ 17.2 µM) | 32 (≈ 17.2 µM) | 16 (≈ 8.58 µM) | 8 (≈ 4.29 µM) | 
C=C1NC(=O)C2NC(=O)[C@H](CC(C)C)NC(=O)C(NC(=O)[C@@H]3CSC(C)C(NC(=O)[C@H](Cc4ccccc4)NC(=O)C4NC(=O)[C@@H](N)CSC4C)C(=O)N[C@@H](CC(C)C)C(=O)N4CCC[C@H]4C(=O)N[C@@H](CC(N)=O)C(=O)NCC(=O)NCC(=O)NCC(=O)N[C@@H](C(C)C)C(=O)N3)C(C)SC[C@H](NC(=O)[C@H](CCC(=O)O)NC1=O)C(=O)N[C@@H]([C@@H](C)CC)C(=O)NC=CSC2C (some centres unmarked) [G7N] |  | 64 (≈ 34 µM) | < 4 | >64 | >64 | 64 (≈ 34 µM) | 32 (≈ 17 µM) | 16 µg/mL (≈ 8.5 µM)
C=C1NC(=O)C2NC(=O)[C@H](CC(C)C)NC(=O)C(NC(=O)[C@@H]3CSC(C)C(NC(=O)[C@H](Cc4ccccc4)NC(=O)C4NC(=O)[C@@H](N)CSC4C)C(=O)N[C@@H](CC(C)C)C(=O)N4CCC[C@H]4C(=O)N[C@@H](C)C(=O)NCC(=O)NCC(=O)NCC(=O)N[C@@H](C(C)C)C(=O)N3)C(C)SC[C@H](NC(=O)[C@H](CCC(=O)O)NC1=O)C(=O)N[C@@H]([C@@H](C)CC)C(=O)NC=CSC2C (some centres unmarked) [G7A] |  | >64 | 64 (≈ 34.8 µM) | >64 | >64 | 64 (≈ 34.8 µM) | 64 (≈ 34.8 µM) | >64 µg/mL
C=C1NC(=O)C2NC(=O)[C@H](CC(C)C)NC(=O)C(NC(=O)[C@@H]3CSC(C)C(NC(=O)[C@H](Cc4ccccc4)NC(=O)C4NC(=O)[C@@H](N)CSC4C)C(=O)N[C@@H](CC(C)C)C(=O)N4CCC[C@H]4C(=O)NCC(=O)NCC(=O)NCC(=O)NCC(=O)N[C@@H](CCSC)C(=O)N3)C(C)SC[C@H](NC(=O)[C@H](CCC(=O)O)NC1=O)C(=O)N[C@@H]([C@@H](C)CC)C(=O)NC=CSC2C (some centres unmarked) [V11M] | 32 (≈ 17.2 µM) | 64 (≈ 34.4 µM) | 16 (≈ 8.61 µM) | 64 (≈ 34.4 µM) | 64 (≈ 34.4 µM) | 32 (≈ 17.2 µM) |  | 32 µg/mL (≈ 17.2 µM)
C=C1NC(=O)C2NC(=O)[C@H](CC(C)C)NC(=O)C(NC(=O)[C@@H]3CSC(C)C(NC(=O)[C@H](Cc4ccccc4)NC(=O)C4NC(=O)[C@@H](N)CSC4C)C(=O)N[C@@H](CC(C)C)C(=O)N[C@@H](Cc4c[nH]cn4)C(=O)NCC(=O)NCC(=O)NCC(=O)NCC(=O)N[C@@H](C(C)C)C(=O)N3)C(C)SC[C@H](NC(=O)[C@H](CCC(=O)O)NC1=O)C(=O)N[C@@H]([C@@H](C)CC)C(=O)NC=CSC2C (some centres unmarked) [P6H] |  | 64 (≈ 34.3 µM) | 16 (≈ 8.57 µM) | >64 | >64 | >64 |  | 64, >64 μg/ml
CC[C@H](C)[C@@H]1NC(=O)[C@@H]2CSC(C)C(NC(=O)[C@@H]3CSC(C)C(NC(=O)[C@H](Cc4ccccc4)NC(=O)C4NC(=O)[C@@H](N)CSC4C)C(=O)N[C@@H](CC(C)C)C(=O)N4CCC[C@H]4C(=O)NCC(=O)NCC(=O)NCC(=O)NCC(=O)N[C@@H](C(C)C)C(=O)N3)C(=O)N[C@@H](CC(C)C)C(=O)NC(C(=O)NCC(=O)N[C@@H](CCC(=O)O)C(=O)N2)C(C)SC=CNC1=O (some centres unmarked) [S16G] | 16 (≈ 8.82 µM) | 32 (≈ 17.6 µM) |  | 64 (≈ 35.3 µM) | 64 (≈ 35.3 µM) | 32 (≈ 17.6 µM) | 16 (≈ 8.82 µM) | 2 µg/mL (≈ 1.1 µM)
C=C1NC(=O)C2NC(=O)[C@H](CC(C)C)NC(=O)C(NC(=O)[C@@H]3CSC(C)C(NC(=O)[C@H](Cc4ccccc4)NC(=O)C4NC(=O)[C@@H](N)CSC4C)C(=O)N[C@@H](CC(C)C)C(=O)N4CCC[C@H]4C(=O)NCC(=O)NCC(=O)N[C@@H](Cc4c[nH]cn4)C(=O)NCC(=O)N[C@@H](C(C)C)C(=O)N3)C(C)SC[C@H](NC(=O)[C@H](CCC(=O)O)NC1=O)C(=O)N[C@@H]([C@@H](C)CC)C(=O)NC=CSC2C (some centres unmarked) [G9H] |  | 32 (≈ 16.8 µM) | < 4 | >64 | >64 | 64 (≈ 33.6 µM) | 32 (≈ 16.8 µM) | 16 µg/mL (≈ 8.39 µM)
C=C1NC(=O)C2NC(=O)[C@H](CC(C)C)NC(=O)C(NC(=O)[C@@H]3CSC(C)C(NC(=O)[C@H](Cc4ccccc4)NC(=O)C4NC(=O)[C@@H](N)CSC4C)C(=O)N[C@@H](CC(C)C)C(=O)N4CCC[C@H]4C(=O)NCC(=O)N[C@@H](CCC(N)=O)C(=O)NCC(=O)NCC(=O)N[C@@H](C(C)C)C(=O)N3)C(C)SC[C@H](NC(=O)[C@H](CCC(=O)O)NC1=O)C(=O)N[C@@H]([C@@H](C)CC)C(=O)NC=CSC2C (some centres unmarked) [G8Q] | 32 (≈ 16.9 µM) | >64 | 8 (≈ 4.22 µM) | >64 | >64 | >64 |  | 
C=C1NC(=O)C2NC(=O)[C@H](CC(C)C)NC(=O)C(NC(=O)[C@@H]3CSC(C)C(NC(=O)[C@H](Cc4ccccc4)NC(=O)C4NC(=O)[C@@H](N)CSC4C)C(=O)N[C@@H](CC(C)C)C(=O)N4CCC[C@H]4C(=O)NCC(=O)NCC(=O)NCC(=O)N[C@@H](Cc4ccc(O)cc4)C(=O)N[C@@H](C(C)C)C(=O)N3)C(C)SC[C@H](NC(=O)[C@H](CCC(=O)O)NC1=O)C(=O)N[C@@H]([C@@H](C)CC)C(=O)NC=CSC2C (some centres unmarked) [G10Y] | 64 (≈ 33.1 µM) | >64 | < 4 | 32 (≈ 16.6 µM) | >64 | 64 (≈ 33.1 µM) |  | < 4 µg/mL

More lines, now with the values ahead:

MIC S. aureus R33 MRSA (S. aureus R33 MRSA) [µg/mL] | MIC S. aureus SH1000 (S. aureus SH1000) [µg/mL] | MIC M. luteus ATCC4698 (M. luteus ATCC4698) [µg/mL] | MIC E. faecalis ATCC29212 (E. faecalis ATCC29212) [µg/mL] | MIC E. faecium 7131121 VRE (E. faecium 7131121 VRE) [µg/mL] | MIC E. faecium ATCC19579 (E. faecium ATCC19579) [µg/mL] | MIC S. epidermidis NCTC11047 (S. epidermidis NCTC11047) [µg/mL] | MIC S. pneumoniae BAA-255 (S. pneumoniae BAA-255) | SMILES
16 (≈ 8.68 µM) | 32 (≈ 17.4 µM) | 2 (≈ 1.08 µM) | 64 (≈ 34.7 µM) | 64 (≈ 34.7 µM) | 64 (≈ 34.7 µM) |  | 4 µg/mL (≈ 2.17 µM) | C=C1NC(=O)C2NC(=O)[C@H](CCSC)NC(=O)C(NC(=O)[C@@H]3CSC(C)C(NC(=O)[C@H](Cc4ccccc4)NC(=O)C4NC(=O)[C@@H](N)CSC4C)C(=O)N[C@@H](CC(C)C)C(=O)N4CCC[C@H]4C(=O)NCC(=O)NCC(=O)NCC(=O)NCC(=O)N[C@@H](C(C)C)C(=O)N3)C(C)SC[C@H](NC(=O)[C@H](CCC(=O)O)NC1=O)C(=O)N[C@@H]([C@@H](C)CC)C(=O)NC=CSC2C (some centres unmarked) [L14M]
16 (≈ 8.83 µM) | 32 (≈ 17.7 µM) |  | 64 (≈ 35.3 µM) | >64 | 64 (≈ 35.3 µM) | 16 (≈ 8.83 µM) | 4 µg/mL (≈ 2.21 µM) | C=C1NC(=O)C2NC(=O)[C@H](C(C)C)NC(=O)C(NC(=O)[C@@H]3CSC(C)C(NC(=O)[C@H](Cc4ccccc4)NC(=O)C4NC(=O)[C@@H](N)CSC4C)C(=O)N[C@@H](CC(C)C)C(=O)N4CCC[C@H]4C(=O)NCC(=O)NCC(=O)NCC(=O)NCC(=O)N[C@@H](C(C)C)C(=O)N3)C(C)SC[C@H](NC(=O)[C@H](CCC(=O)O)NC1=O)C(=O)N[C@@H]([C@@H](C)CC)C(=O)NC=CSC2C (some centres unmarked) [L14V]
32 (≈ 17.4 µM) | 64 (≈ 34.8 µM) |  | 64 (≈ 34.8 µM) | 32 (≈ 17.4 µM) | 32 (≈ 17.4 µM) | 16 (≈ 8.69 µM) |  | C=C1NC(=O)C2NC(=O)[C@H](CC(C)C)NC(=O)C(NC(=O)[C@@H]3CSC(C)C(NC(=O)[C@H](Cc4ccccc4)NC(=O)C4NC(=O)[C@@H](N)CSC4C)C(=O)N[C@@H](CC(C)C)C(=O)N4CCC[C@H]4C(=O)NCC(=O)NCC(=O)NCC(=O)NCC(=O)N[C@@H](CC(C)C)C(=O)N3)C(C)SC[C@H](NC(=O)[C@H](CCC(=O)O)NC1=O)C(=O)N[C@@H]([C@@H](C)CC)C(=O)NC=CSC2C (some centres unmarked) [V11L]
8 (≈ 4.38 µM) | 32 (≈ 17.5 µM) |  | 32 (≈ 17.5 µM) |  | 16 (≈ 8.76 µM) |  | 1 µg/mL (≈ 0.548 µM) | C=C1NC(=O)C2NC(=O)[C@H]([C@@H](C)CC)NC(=O)C(NC(=O)[C@@H]3CSC(C)C(NC(=O)[C@H](Cc4ccccc4)NC(=O)C4NC(=O)[C@@H](N)CSC4C)C(=O)N[C@@H](CC(C)C)C(=O)N4CCC[C@H]4C(=O)NCC(=O)NCC(=O)NCC(=O)NCC(=O)N[C@@H](C(C)C)C(=O)N3)C(C)SC[C@H](NC(=O)[C@H](CCC(=O)O)NC1=O)C(=O)N[C@@H]([C@@H](C)CC)C(=O)NC=CSC2C (some centres unmarked) [L14I]
